Experimental data published in US6451856B1, “Carnitine supplemented diets for gestating and lactating swine” (Lonza Inc., priority 1996, dated 2002).

How the values were obtained:
Assay type in all cases: in vivo, swine
sows (PIC Line C-15x326) [1] = test: Effect of L-carnitine fed during gestation, lactation or both on sow and litter performance; details: for Litter birth weight / Litter weight at weaning / Litter weight gain / Pig birth weight / Pig wean weight / Pig weight gain / Survivability: 50 ppm L-carnitine in diet; for Pigs weaned per litter / Average daily feed intake, overall / Average daily feed intake, wk 1 / Average daily feed intake, wk 2: 50 ppm L-carnitine; for Pigs weaned per litter: pigs per litter on day 2 as covariate; for Average daily feed intake, overall / Average daily feed intake, wk 1 / Average daily feed intake, wk 2: sow lactation feed intake
Excerpt: A total of 307 sows (PIC Line C-15x326) were used to determine the effect of feeding 50 ppm L-carnitine on the sow and litter performance. Sows were randomly assigned to either control or test dietary treatments. The three test treatments were designated as follows: (i) control/carnitine (in which carnitine was supplemented only during the period of lactation); (ii) carnitine/control (in which carnitine was supplemented only during the period of gestation) and (iii) carnitine/carnitine (in which carnitine was supplemented during the periods of both gestation and lactation).
A gestation diet was formulated to contain nutrients in excess of NRC (1988) estimates, and included 79.51% milo; 15.22% soybean meal (46.5% CP); 2.51% monocalcium phosphate; 1.11% limestone; 0.5% sodium chloride; 0.25% sow premix; 0.25% vitamin premix; and 0.15% trace element premix. This diet contained 0.65% total lysine, 0.95% Ca and 0.85% P. Experimental gestation diet contained 50 ppm L-carnitine. Sows were fed 4 lb of diet/day once a day until farrowing. Sows were weighed and last rib fat debt was recorded at day 110 of gestation. At farrowing, a number of pigs born live, stillborn, and mummies were recorded. Individual pig weight and litter weight were also recorded. Within 48 hours from farrowing, litters were equalized within dietary treatment.
A lactation diet was formulated to contain nutrients in excess of NRC (1988) estimates, and included 62.91% milo; 28.41% soybean meal (46.5% CP); 4% soybean oil; 2.33% monocalcium phosphate; 1.12% limestone; 0.5% sodium chloride; 0.25% sow premix; 0.25% vitamin premix; 0.15% trace element premix; 0.05% vitamin E and 0.02% DL-Methionine. This diet contained 1.0% total lysine, 0.95% Ca and 0.85% P. Experimental lactation diet contained 50 ppm L-carnitine. The sows were allowed ad libitum access to feed. Feed intake was measured weekly. Pigs were weighed at weaning to determine pig and litter weight. Sows were ultrasonically scanned for last rib fat debt at weaning.
The data were analyzed by analysis of variance using GLM procedure of SAS (1988).

sows (PIC Line C-15x326) [2] = test: Sow plasma analysis for insulin and IGF-I
Procedure: Sows were bled at day 10, 60, 90 and 110 of gestation and at weaning. Plasma samples were analyzed for concentration of free and total carnitine, insulin, and insulin-like growth factor I (IGF-I). The data were analyzed by analysis of variance using GLM procedure of SAS (1988).

sows (PIC Line C-15x326) [3] = test: Effects of L-carnitine on subsequent reproductive performance (second reproductive cycle, no carnitine); details: for Days to estrus / Farrowing rate / Number born live / Number total born: first-cycle 50 ppm L-carnitine; for Farrowing rate / Number born live / Number total born: second cycle
Procedure: The effect of carnitine on subsequent reproductive performance was also measured. Sows fed diets described above were continued to be monitored during the subsequent, i.e., second cycle of reproduction. The sow diets were not supplemented with carnitine during the second cycle of reproduction to determine if carnitine had any residual effect. The total number of pigs born and the number of pigs born alive were determined. Referring to Table 5, feeding carnitine in the first reproductive cycle increased the total number of born pigs and the number of pigs born alive in the second reproductive cycle.

[4] = gestation and lactation (carnitine/carnitine)
[5] = gestation only (carnitine/control)
[6] = gestation only (carnitine/control), listed as Carnitine
[7] = lactation only (control/carnitine)
[8] = carnitine fed in the first reproductive cycle, none in the second

C[N+](C)(C)C[C@H](O)CC(=O)[O-] [L-carnitine]
Litter birth weight (sows (PIC Line C-15x326) [1]; [4]): 34.49 lb | Litter weight at weaning (sows (PIC Line C-15x326) [1]; [4]): 99.03 lb | Litter weight gain (sows (PIC Line C-15x326) [1]; [4]): 64.25 lb | Pig birth weight (sows (PIC Line C-15x326) [1]; [4]): 3.53 lb | Pig wean weight (sows (PIC Line C-15x326) [1]; [4]): 10.99 lb | Pig weight gain (sows (PIC Line C-15x326) [1]; [4]): 7.45 lb | Survivability (sows (PIC Line C-15x326) [1]; [4]): 90.45% | Litter birth weight (sows (PIC Line C-15x326) [1]; [5]): increased | Litter weight at weaning (sows (PIC Line C-15x326) [1]; [5]): increased | Litter weight gain (sows (PIC Line C-15x326) [1]; [5]): increased | Pig birth weight (sows (PIC Line C-15x326) [1]; [5]): increased | Pig wean weight (sows (PIC Line C-15x326) [1]; [5]): increased | Pig weight gain (sows (PIC Line C-15x326) [1]; [5]): increased | Survivability (sows (PIC Line C-15x326) [1]; [5]): 86.87% | Litter birth weight (sows (PIC Line C-15x326) [1]; [6]): 34.46 lb | Litter weight at weaning (sows (PIC Line C-15x326) [1]; [6]): 97.69 lb | Litter weight gain (sows (PIC Line C-15x326) [1]; [6]): 62.83 lb | Pig birth weight (sows (PIC Line C-15x326) [1]; [6]): 3.45 lb | Pig wean weight (sows (PIC Line C-15x326) [1]; [6]): 10.94 lb | Pig weight gain (sows (PIC Line C-15x326) [1]; [6]): 7.52 lb | Litter birth weight (sows (PIC Line C-15x326) [1]; [7]): 32.73 lb | Litter weight at weaning (sows (PIC Line C-15x326) [1]; [7]): 91.91 lb | Litter weight gain (sows (PIC Line C-15x326) [1]; [7]): 58.59 lb | Pig birth weight (sows (PIC Line C-15x326) [1]; [7]): 3.32 lb | Pig wean weight (sows (PIC Line C-15x326) [1]; [7]): 10.38 lb | Pig weight gain (sows (PIC Line C-15x326) [1]; [7]): 7.11 lb | Survivability (sows (PIC Line C-15x326) [1]; [7]): 86.08% | Pigs weaned per litter (sows (PIC Line C-15x326) [1]; [4]): 9.00 | Pigs weaned per litter (sows (PIC Line C-15x326) [1]; [5]): 9.02 | Pigs weaned per litter (sows (PIC Line C-15x326) [1]; [7]): 8.89 | sow weight at weaning (sows (PIC Line C-15x326) [1]; L-carnitine during gestation only, control 493, P<0.01): 511 lb | sow weight at weaning (sows (PIC Line C-15x326) [1]; carnitine during both gestation and lactation, control 493 lb): 524 lb | sow or litter performance (sows (PIC Line C-15x326) [1]; carnitine during the period of lactation only, versus control): no differences were observed | number of stillborn pigs per litter (sows (PIC Line C-15x326) [1]; carnitine-supplemented diet during gestation only, control 0.76, P<0.02): 0.49 stillborn pigs/litter | Average daily feed intake, overall (sows (PIC Line C-15x326) [1]; [4]): 13.58 lb | Average daily feed intake, wk 1 (sows (PIC Line C-15x326) [1]; [4]): 11.88 lb | Average daily feed intake, wk 2 (sows (PIC Line C-15x326) [1]; [4]): 14.87 lb | Average daily feed intake, overall (sows (PIC Line C-15x326) [1]; [5]): 13.16 lb | Average daily feed intake, wk 1 (sows (PIC Line C-15x326) [1]; [5]): 11.52 lb | Average daily feed intake, wk 2 (sows (PIC Line C-15x326) [1]; [5]): 14.70 lb | Average daily feed intake, overall (sows (PIC Line C-15x326) [1]; [7]): 13.01 lb | Average daily feed intake, wk 1 (sows (PIC Line C-15x326) [1]; [7]): 11.55 lb | Average daily feed intake, wk 2 (sows (PIC Line C-15x326) [1]; [7]): 14.41 lb | insulin levels in the plasma of sows (sows (PIC Line C-15x326) [2]; days 10 and 60 of gestation, P<0.07): tended to increase | IGF-I concentration in sow plasma (sows (PIC Line C-15x326) [2]; gestation days 60 and 90): tended to increase | number of pigs born alive in the second reproductive cycle (sows (PIC Line C-15x326) [3]; [8]): increased | total number of born pigs in the second reproductive cycle (sows (PIC Line C-15x326) [3]; [8]): increased | Days to estrus (sows (PIC Line C-15x326) [3]; [4]): 5.37 days | Days to estrus (sows (PIC Line C-15x326) [3]; [5]): 6.11 days | Days to estrus (sows (PIC Line C-15x326) [3]; [7]): 5.82 days | Farrowing rate (sows (PIC Line C-15x326) [3]; [4]): 93.2% | Number born live (sows (PIC Line C-15x326) [3]; [4]): 12.03 | Number total born (sows (PIC Line C-15x326) [3]; [4]): 12.85 | Farrowing rate (sows (PIC Line C-15x326) [3]; [5]): 86.5% | Number born live (sows (PIC Line C-15x326) [3]; [5]): 11.17 | Number total born (sows (PIC Line C-15x326) [3]; [5]): 11.97 | Farrowing rate (sows (PIC Line C-15x326) [3]; [7]): 96.3% | Number born live (sows (PIC Line C-15x326) [3]; [7]): 11.22 | Number total born (sows (PIC Line C-15x326) [3]; [7]): 12.26
